Data on 11 compounds can be found in ChEMBL document CHEMBL1201862, “PubChem BioAssay data set” (2004).

Some test systems named below: IGROV-1; HOP-92; Hs-578T; HOP-62; BT-549; HCC 2998; HCT-116; SK-MEL-5; SW-620; SN12C; EKVX; OVCAR-5; NCI-H522; SF-268; U-251; M14; OVCAR-4; 786-0; Malme-3M.
Test in all cases: inhibition of tumour cell growth, NCI panel, 48 h

Where “and” joins values, the source holds several entries; their conditions need not be identical. Equal entries are not always repeated.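 96-well plates; 48 h exposure; 5 concentrations. Endpoints by linear interpolation between flanking doses. Not reached: highest tested concentration assigned. Abbreviation: GI50, concentration required for 50% inhibition of growth.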 Calls of active or inactive are those of the source. Cut-off read from the data, not from the text of the source: active = GI50 up to about 1.1 µM and inactive = higher.

With `COc1ccc(-c2[nH]c(=O)n(C3OC(CO)C(O)C(O)C3O)c(=O)c2C#N)cc1` (stereo unspecified), the GI50 was > 100 µM (inactive) and 86.1 µM (inactive) in the assay with IGROV-1; > 100 µM (inactive) in the assay on HOP-92; > 100 µM (inactive) in the assay with Hs-578T; > 100 µM (inactive) with HOP-62; > 100 µM (inactive) in the assay on BT-549; > 100 µM (inactive) in the assay with HCC 2998. Besides, the GI50 in the assay with HCT-116, in the assay with SK-MEL-5, with SW-620, in the assay on SN12C, in the assay with EKVX and in the assay on OVCAR-5 was > 100 µM (inactive) in each case. Moreover, the GI50 with NCI-H522, in the assay with SF-268, in the assay with U-251, in the assay on M14, with OVCAR-4 and in the assay with 786-0 was > 100 µM (inactive) in each case.

For the compound `CCOC(=O)c1c(-c2ccc(OC)cc2)c(C#N)c(=S)n(C2OC(COC(C)=O)C(OC(C)=O)C(OC(C)=O)C2OC(C)=O)c1-c1ccccc1` (stereo unspecified), the GI50 with IGROV-1 was > 100 µM (inactive); in the assay on HOP-92, 17.8 µM (inactive); with Hs-578T it was 29.9 µM (inactive); in the assay on HOP-62, > 100 µM (inactive); in the assay with BT-549 it was > 100 µM (inactive); in the assay with HCC 2998, > 100 µM (inactive). Also, the GI50 is > 100 µM (inactive) with HCT-116; 40.6 µM (inactive) in the assay on SK-MEL-5; > 100 µM (inactive) with SW-620; > 100 µM (inactive) with Malme-3M; > 100 µM (inactive) in the assay with SN12C; > 100 µM (inactive) in the assay with OVCAR-5. Besides, the GI50 in the assay on SF-268, with U-251, in the assay with M14, in the assay on OVCAR-4 and with 786-0 was > 100 µM (inactive) each time.

Take `COC(=O)C1=C(O)C(C(=O)OC)[C@]2(O)[C@H](C(=O)OC)[C@H]1C[C@@H](c1ccc(OC)c(OC)c1)[C@H]2C(=O)OC` (stereo partly specified): the GI50 was 26.1 µM (inactive) in the assay on IGROV-1; 21.2 µM (inactive) with HOP-92; 29.9 µM (inactive) in the assay with Hs-578T; 16.7 µM (inactive) in the assay on HOP-62; 16.4 µM (inactive) in the assay on BT-549; 11.7 µM (inactive) with HCC 2998. Moreover, the GI50 with HCT-116 is 21 µM (inactive); in the assay with SK-MEL-5, 13.3 µM (inactive); in the assay on SW-620 it was 15.6 µM (inactive); in the assay on SN12C, 28.2 µM (inactive); with EKVX, 32.5 µM (inactive); with OVCAR-5, 23.6 µM (inactive). The GI50 in the assay with U-251 was 11.2 µM (inactive); in the assay with M14 it was 12.3 µM (inactive); in the assay on OVCAR-4, 29.6 µM (inactive); with 786-0, 39.8 µM (inactive).

As for `CC1(C2(C)OC(=O)c3ccccc32)OC(=O)c2ccccc21` (stereo unspecified), the GI50 with IGROV-1 was > 100 µM (inactive); in the assay with HOP-92, > 100 µM (inactive); in the assay with Hs-578T, 72.6 µM (inactive); with HOP-62 it was > 100 µM (inactive); in the assay on BT-549, > 100 µM (inactive); with HCC 2998, > 100 µM (inactive). Moreover, the GI50 in the assay with HCT-116 was > 100 µM (inactive); in the assay on SK-MEL-5, > 100 µM (inactive); in the assay on SW-620, > 100 µM (inactive); in the assay on SN12C, > 100 µM (inactive); with NCI-H522, 35.9 µM (inactive); in the assay with SF-268, > 100 µM (inactive). The GI50 in the assay on U-251, in the assay with M14, in the assay on OVCAR-4 and with 786-0 was > 100 µM (inactive) in each case.

As to `Cn1ncc2c(Cl)ncnc21`, the GI50 in the assay with IGROV-1, in the assay with HOP-92, with Hs-578T, in the assay on HOP-62, in the assay on BT-549 and with HCC 2998 was > 100 µM (inactive) in each case. Further, the GI50 in the assay with HCT-116, in the assay on SK-MEL-5, in the assay with SW-620, with SN12C, with EKVX and in the assay with OVCAR-5 was > 100 µM (inactive) in each case. The GI50 in the assay on NCI-H522, in the assay on SF-268, in the assay on U-251, with M14, in the assay on OVCAR-4 and in the assay with 786-0 was > 100 µM (inactive) in each case.

As for `CCOP(=O)(OCC)/C(=C/c1ccccc1)CC(C)=O`, the GI50 in the assay with IGROV-1, in the assay on HOP-92, in the assay on Hs-578T, in the assay on HOP-62, in the assay on BT-549 and in the assay on HCC 2998 was > 100 µM (inactive) throughout. The GI50 with HCT-116, in the assay on SK-MEL-5, with SW-620, in the assay with Malme-3M, in the assay on SN12C and with EKVX was > 100 µM (inactive) in each case. In addition, the GI50 with OVCAR-5, in the assay on SF-268, in the assay on U-251, in the assay with M14, with OVCAR-4 and in the assay with 786-0 was > 100 µM (inactive) each time.

On to `Cc1[nH]c2ncn(Nc3ccccc3)c(=N)c2c1Cc1ccccc1`, for which the GI50 in the assay on IGROV-1 was 3.85 µM (inactive); in the assay on HOP-92 it was 33.1 µM (inactive); in the assay on Hs-578T it was 8.28 µM (inactive); with HOP-62 it was 32.4 µM (inactive); with BT-549, 3.34 µM (inactive); in the assay with HCC 2998 it was > 100 µM (inactive). Besides, the GI50 is 0.522 µM (active) in the assay with HCT-116; 0.386 µM (active) in the assay with SK-MEL-5; 34.1 µM (inactive) in the assay with SW-620; > 38.7 µM (inactive) in the assay with Malme-3M; > 80.5 µM (inactive) with SN12C; 5.89 µM (inactive) in the assay on EKVX. The GI50 in the assay on OVCAR-5 is 11.2 µM (inactive); with SF-268, > 100 µM (inactive); in the assay on U-251 it was 19.7 µM (inactive); with M14, 0.162 µM (active); in the assay with OVCAR-4 it was > 27.5 µM (inactive); in the assay on 786-0, 66.1 µM (inactive).

Regarding `CC(=O)c1csc2c1C(=O)c1scc(C(C)=O)c1C2=O`, the GI50 was 1.57 µM (inactive) in the assay with IGROV-1; 2 µM (inactive) with HOP-92; 2.74 µM (inactive) in the assay on Hs-578T; 1.8 µM (inactive) with HOP-62; 1.75 µM (inactive) in the assay with BT-549; 2.15 µM (inactive) in the assay on HCT-116. Besides, the GI50 in the assay with SK-MEL-5 was 1.44 µM (inactive); with SW-620, 1.94 µM (inactive); in the assay on Malme-3M, 1.49 µM (inactive); in the assay with SN12C, 1.7 µM (inactive); with EKVX, 1.89 µM (inactive); in the assay with OVCAR-5, 1.98 µM (inactive). The GI50 with NCI-H522 was 0.52 µM (active); in the assay with SF-268 it was 1.47 µM (inactive); in the assay with U-251, 1.43 µM (inactive); in the assay with M14, 1.63 µM (inactive); in the assay on OVCAR-4, 0.587 µM (active); in the assay on 786-0 it was 2.05 µM (inactive).

Turning to `C=CCc1cc(C=C(C#N)C#N)cc(OC)c1O`, the GI50 with IGROV-1 is > 100 µM (inactive); with HOP-92, 33.5 µM (inactive); with Hs-578T, > 100 µM (inactive); with BT-549, 90.4 µM (inactive); in the assay with HCC 2998 it was > 10 µM (inactive); in the assay on HCT-116 it was > 100 µM (inactive). The GI50 in the assay on SK-MEL-5 was 27.7 µM (inactive); in the assay on SW-620 it was 81.7 µM (inactive); with Malme-3M it was > 100 µM (inactive); in the assay on EKVX, > 100 µM (inactive); in the assay with OVCAR-5, > 100 µM (inactive); with NCI-H522, 90.6 µM (inactive). The GI50 in the assay with U-251 is 76.2 µM (inactive); with M14 it was > 100 µM (inactive); in the assay with OVCAR-4 it was > 100 µM (inactive); in the assay with 786-0 it was > 100 µM (inactive).

For `O=C(NCc1cccc(C(F)(F)F)c1)c1cc2sccc2nc1C(F)(F)F`, the GI50 is > 100 µM (inactive) with IGROV-1; 50.9 µM (inactive) in the assay with HOP-92; 26.9 µM (inactive) with Hs-578T; 33.8 µM (inactive) with HOP-62; > 100 µM (inactive) in the assay on BT-549; > 100 µM (inactive) in the assay on HCT-116. Further, the GI50 in the assay on SK-MEL-5 is 93.1 µM (inactive); in the assay on SW-620 it was > 100 µM (inactive); in the assay with Malme-3M, > 100 µM (inactive); with SN12C, 98.9 µM (inactive); in the assay with EKVX, > 100 µM (inactive); with OVCAR-5, > 100 µM (inactive). Also, the GI50 in the assay on NCI-H522 is 62.7 µM (inactive); with SF-268, 64 µM (inactive); with U-251, 27.4 µM (inactive); with M14 it was > 100 µM (inactive); in the assay with OVCAR-4, 32.7 µM (inactive); in the assay with 786-0, 25.5 µM (inactive).

As for `CC(C)C1=CC23CCC4C(C)(C(=O)O)CCCC4(C)C2CC1C(C(=O)O)C3C(=O)O` (stereo unspecified), the GI50 in the assay on IGROV-1, in the assay on HOP-92, with Hs-578T, in the assay with HOP-62, in the assay on BT-549 and in the assay with HCT-116 was > 100 µM (inactive) in each case. In addition, the GI50 with SK-MEL-5, with SW-620, in the assay with Malme-3M, in the assay on SN12C, in the assay on EKVX and in the assay with OVCAR-5 was > 100 µM (inactive) each time. Further, the GI50 with NCI-H522, in the assay with SF-268, in the assay on U-251, in the assay on M14, in the assay with OVCAR-4 and in the assay with 786-0 was > 100 µM (inactive) in each case.
